Measured values reported in patent publication US12466856B2, “Echinocandin analogues and preparation method therefor” (SHANGHAI SENHUI MEDICINE CO., LTD., priority 2019, dated 2025).
Like-named read-outs stand apart in the source and are kept apart here. Starred links: 1 amine or outer side, 2 acyl side, 3 side chain; linkers in the order of their positions; H or OH if unused. Positions of bridges follow the written chain, without caps; N, C: chain ends. Non-standard residues stand in square brackets, D forms with d. Residues, ends and D or L forms follow the SMILES beside them. *: point of attachment. Orn(4R-OH,5R-OCH2CH2NMe3+) = C[N+](C)(C)CCO[C@@H](N[*:3])[C@H](O)C[C@H](N[*:1])C(=O)[*:2]; hTyr(3S-OH,4S-OH) = N[C@H](C(=O)O)[C@H](O)[C@@H](O)c1ccc(O)cc1; X1 = O=C(c1ccc(-c2ccc(-c3ccc(OCCCCCF)cc3)cc2)cc1)*; Pro(3S-OH,4S-Me) = C[C@H]1CN[C@H](C(=O)O)[C@H]1O; Hyp = O=C(O)[C@@H]1C[C@@H](O)CN1

Columns and labels:
Assay type in all cases: cell-based
[1] = system: Candida parapsilosis ATCC 22019; assay: MIC assay (CLSI M27-A3), Candida parapsilosis ATCC 22019; conditions: Lodderomyces parapsilosis, ATCC22019, 24 h, read-out: MIC, Candida parapsilosis ATCC 22019
Method: (§1) After a test compound was serially diluted, an MIC (minimum inhibitory concentration) assay was performed on the standard Candida strain and an MEC (minimum effective concentration) assay on the standard Aspergillus strain. The MIC assay was performed according to the guidelines of the Clinical and Laboratory Standards Institute (CLSI M27-A3) and the MEC assay according to the guidelines of the Clinical and Laboratory Standards Institute (CLSI M38-A2).
(§2) The frozen strain was passaged at least twice, and a single colony was picked and resuspended in normal saline or sterile water in a tube. The suspension was vortexed and adjusted to 0.5 McF (1×10^6 to 5×10^6 CFU/mL) using a spectrophotometer at wavelength 530 nm. The suspension was 50-fold diluted with normal saline and then 20-fold diluted with 1×RPMI 1640 broth (1×10^3 to 5×10^3 CFU/mL). 10 μL of the suspension was applied to an SDA plate for colony counting, with a range from about 10 to 50 single colonies.
(§3) At this time, the bacterium concentration in each well should be 0.5×10^3 to 2.5×10^3 CFU/mL.
(§4) For echinocandin drugs, Aspergillus was incubated at 28° C. for 21-26 h, and then the MEC results were read.
(§5) Yeast-type fungi: A disposable sealing film was applied to the 96-well plate, and the mixture was well mixed by shaking. Observation was performed through a plate reader with the naked eye. Comparisons were made to the growth control, and the minimum compound concentration corresponding to ≥50% growth inhibition was defined as MIC. Pictures were taken and saved using an automatic plate reader.

[2] = system: Meyerozyma guilliermondii ATCC 6260; assay: MIC assay (CLSI M27-A3), Meyerozyma guilliermondii ATCC 6260; conditions: Meyerozyma guilliermondii, read-out: MIC, Meyerozyma guilliermondii ATCC 6260
Method: as §1, §2, §3, §4, §5

[3] = system: Candida tropicalis ATCC 750; assay: MIC assay (CLSI M27-A3), Candida tropicalis ATCC 750; conditions: Candida tropicalis, read-out: MIC, Candida tropicalis ATCC 750
Method: as §1, §2, §3, §4, §5

[4] = system: Candida glabrata ATCC 15126; assay: MIC assay (CLSI M27-A3), Candida glabrata ATCC 15126; conditions: Nakaseomyces glabratus, read-out: MIC, Candida glabrata ATCC 15126
Method: as §1, §2, §3, §4, §5

[5] = system: Aspergillus flavus ATCC 28539; assay: MEC assay (CLSI M38-A2), Aspergillus flavus ATCC 28539; conditions: first batch; 28° C., 21-26 h
Method: The MIC assay was performed according to the guidelines of the Clinical and Laboratory Standards Institute (CLSI M27-A3) and the MEC assay according to the guidelines of the Clinical and Laboratory Standards Institute (CLSI M38-A2).
Colonies on the plate were covered with about 1 mL of 0.85% normal saline or sterile water (polysorbate 20 was added at a final concentration of 0.1%-0.01%). […] The homogeneous upper layer of the suspension was transferred to a new sterile tube, which was then sealed and vortexed for 15 s (be careful as the suspension may produce an aerosol when the cover is removed). The concentration of the suspension was adjusted until an OD value of 0.09-0.13 was achieved using a spectrophotometer at 530 nm. […] 100 μL of sample was added to each well of the 96-well plate within 2 h after dilution (the final spore concentration in the susceptibility testing plate was at 0.4×10^4 to 5×10^4 CFU/mL).
Aspergillus: For echinocandin drugs, comparisons were made to the growth control under a plate reader, and the minimum drug concentration that could cause the hyphae to form small, round, compact hyphal particles was defined as MEC. For accurate determination of MEC values, the plate must not be vortexed before reading.

Candida krusei ATCC 6258 = assay: MIC assay (CLSI M27-A3), Candida krusei ATCC 6258; conditions: Pichia kudriavzevii, ATCC6258, 24 h, read-out: MIC, Candida krusei ATCC 6258
Method: as §1, §2, §3, §4, §5

[6] = system: Candida albicans ATCC 90029; assay: MIC assay (CLSI M27-A3), Candida albicans ATCC 90029; conditions: Candida albicans, read-out: MIC, Candida albicans ATCC 90029
Method: as §1, §2, §3, §4, §5

[7] = ATCC6260, first batch, 24 h, 35° C.
[8] = ATCC750, first batch, 24 h, 35° C.
[9] = ATCC15126, first batch, 24 h, 35° C., ≥50% growth inhibition
[10] = ATCC90029, first batch, 24 h, 35° C., ≥50% growth inhibition

CCCCCOc1ccc(-c2ccc(-c3ccc(C(=O)N[C@H]4C[C@@H](O)[C@@H](OCC[N+]5(C)CCCC5)NC(=O)[C@@H]5[C@@H](O)[C@@H](C)CN5C(=O)[C@H]([C@@H](C)O)NC(=O)[C@H]([C@H](O)[C@@H](O)c5ccc(O)cc5)NC(=O)[C@@H]5C[C@@H](O)CN5C(=O)[C@H]([C@@H](C)O)NC4=O)cc3)cc2)cc1 [Example 5]
MIC [1]: 2 µg/mL | MIC [2, 7]: 4 µg/mL | MIC [3, 8]: 0.016 µg/mL | MIC [4, 9]: 0.125 µg/mL | MEC, Aspergillus flavus ATCC 28539 [5]: 0.031 µg/mL | MIC (Candida krusei ATCC 6258): 0.125 µg/mL | MIC [6, 10]: 0.125 µg/mL

CCCCCOc1ccc(-c2ccc(-c3ccc(C(=O)N[C@H]4C[C@@H](O)[C@@H](OCC[N+]5(C)CCCCC5)NC(=O)[C@@H]5[C@@H](O)[C@@H](C)CN5C(=O)[C@H]([C@@H](C)O)NC(=O)[C@H]([C@H](O)[C@@H](O)c5ccc(O)cc5)NC(=O)[C@@H]5C[C@@H](O)CN5C(=O)[C@H]([C@@H](C)O)NC4=O)cc3)cc2)cc1 [Example 10]
MIC [1]: 2 µg/mL | MIC [2, 7]: 4 µg/mL | MIC [3, 8]: 0.031 µg/mL | MIC [4, 9]: 0.5 µg/mL | MEC, Aspergillus flavus ATCC 28539 [5]: 0.031 µg/mL | MIC (Candida krusei ATCC 6258): 0.5 µg/mL | MIC [6, 10]: 0.25 µg/mL

C[C@@H](O)[C@@H]1NC(=O)[C@H]([C@H](O)[C@@H](O)c2ccc(O)cc2)NC(=O)[C@@H]2C[C@@H](O)CN2C(=O)[C@H]([C@@H](C)O)NC(=O)[C@@H](NC(=O)c2ccc(-c3ccc(-c4ccc(OCCCCCF)cc4)cc3)cc2)C[C@@H](O)[C@@H](OCC[N+](C)(C)C)NC(=O)[C@@H]2[C@@H](O)[C@@H](C)CN2C1=O [Example 11] (X1-[Orn(4R-OH,5R-OCH2CH2NMe3+)]T[Hyp][hTyr(3S-OH,4S-OH)]T[Pro(3S-OH,4S-Me)]; lactam 1-C)
MIC [1]: 4 µg/mL | MIC ([2]; ATCC6260, 24 h): 2 µg/mL | MIC ([3]; ATCC750, 24 h): 0.031 µg/mL | MIC ([4]; ATCC15126, 24 h): 0.5 µg/mL | MEC, Aspergillus flavus ATCC 28539 [5]: 0.031 µg/mL | MIC (Candida krusei ATCC 6258): 0.5 µg/mL | MIC ([6]; ATCC90029, 24 h): 0.125 µg/mL
